Results on 27 compounds are retold here after patent EP3057951B1, “METHYLENE LINKED QUINOLINYL MODULATORS OF ROR-GAMMA-T” (Janssen Pharmaceutica NV, priority 2013, dated 2015).

Counter-ions that a name gives are not always drawn.

The test has as its target T1, wild type human RORγt ligand binding domain (RORyt LBD) (Homo sapiens, UniProt P51449).
T1 construct: His-tag (N); TurboTEV protease cleavage site (ENLYFQG) (N); made in house; host or cells: E. coli (pHIS1, modified pET vector)
T1 sequence (P51449 258-518): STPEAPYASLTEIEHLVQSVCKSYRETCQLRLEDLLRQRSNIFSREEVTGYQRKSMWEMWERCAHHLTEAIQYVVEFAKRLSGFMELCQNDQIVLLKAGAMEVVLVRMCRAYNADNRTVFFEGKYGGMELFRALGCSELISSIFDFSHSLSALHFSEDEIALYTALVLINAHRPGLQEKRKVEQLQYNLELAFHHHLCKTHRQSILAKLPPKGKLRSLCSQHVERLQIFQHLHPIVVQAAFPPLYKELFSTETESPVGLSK
The test is described as follows: RORγt ThermoFluor assay (thermal shift, binding affinity KD).

`COc1nc2ccc(C(O)(c3ccccn3)c3cncn3C)cc2c(Cl)c1Cc1cc2ccccc2s1` (single isomer, unassigned) [Example 59b, (3-(Benzo[b]thiophen-2-ylmethyl)-4-chloro-2-methoxyquinolin-6-yl)(1-methyl-1H-imidazol-5-yl)(pyridin-2-yl)methanol]: the Kd (commonly a measure of binding affinity in units of concentration) stood at 34 nM.

In the case of `COc1nc2ccc(C(O)(c3ccccn3)c3cncn3C)cc2c(Cl)c1Cc1cc2ccccc2s1` (single isomer, unassigned) [Example 59c, (3-(Benzo[b]thiophen-2-ylmethyl)-4-chloro-2-methoxyquinolin-6-yl)(1-methyl-1H-imidazol-5-yl)(pyridin-2-yl)methanol], the dissociation constant (Kd) was determined as 800 nM.

For `COc1nc2ccc(C(O)(c3ccc(C(F)(F)F)nc3)c3cnnn3C)cc2c(Cl)c1Cc1ccc(C(F)(F)F)cc1` (single isomer, unassigned) [Example 75b, (4-Chloro-2-methoxy-3-(4-(trifluoromethyl)benzyl)quinolin-6-yl)(1-methyl-1H-1,2,3-triazol-5-yl)(6-(trifluoromethyl)pyridin-3-yl)methanol], the Kd worked out at 6.8 nM.

Turning to `COc1nc2ccc(C(O)(c3ccc(C(F)(F)F)nc3)c3cnnn3C)cc2c(Cl)c1Cc1ccc(C(F)(F)F)cc1` (single isomer, unassigned) [Example 75c, (4-Chloro-2-methoxy-3-(4-(trifluoromethyl)benzyl)quinolin-6-yl)(1-methyl-1H-1,2,3-triazol-5-yl)(6-(trifluoromethyl)pyridin-3-yl)methanol], the Kd is 2.5 nM.

Consider `COc1nc2ccc(C(O)(c3cnc(C)n3C)C3CCOCC3)cc2c(Cl)c1Cc1ccc(C(F)(F)F)cc1` (single isomer, unassigned) [Example 86b, (4-Chloro-2-methoxy-3-(4-(trifluoromethyl)benzyl)quinolin-6-yl)(1,2-dimethyl-1H-imidazol-5-yl)(tetrahydro-2H-pyran-4-yl)methanol], for which the Kd came out at 27 nM.

Turning to `COc1nc2ccc(C(O)(c3cnc(C)n3C)C3CCOCC3)cc2c(Cl)c1Cc1ccc(C(F)(F)F)cc1` (single isomer, unassigned) [Example 86c, (4-Chloro-2-methoxy-3-(4-(trifluoromethyl)benzyl)quinolin-6-yl)(1,2-dimethyl-1H-imidazol-5-yl)(tetrahydro-2H-pyran-4-yl)methanol], the Kd came to 0.06 nM.

For the compound `COc1nc2ccc(C(O)(c3cnnn3C)C3CN(C)C3)cc2c(Cl)c1Cc1ccc(C(F)(F)F)cc1` (single isomer, unassigned) [Example 90b, (4-Chloro-2-methoxy-3-(4-(trifluoromethyl)benzyl)quinolin-6-yl)(1-methyl-1H-1,2,3-triazol-5-yl)(1-methylazetidin-3-yl)methanol], the dissociation constant (Kd) came out at 580 nM.

Regarding `COc1nc2ccc(C(O)(c3cnnn3C)C3CN(C)C3)cc2c(Cl)c1Cc1ccc(C(F)(F)F)cc1` (single isomer, unassigned) [Example 90c, (4-Chloro-2-methoxy-3-(4-(trifluoromethyl)benzyl)quinolin-6-yl)(1-methyl-1H-1,2,3-triazol-5-yl)(1-methylazetidin-3-yl)methanol], the Kd was found to be 3.4 nM.

`COc1nc2ccc(C(O)(C3CN(C(C)=O)C3)C3CN(C(C)=O)C3)cc2c(Cl)c1Cc1ccc(C(F)(F)F)cc1` [Example 3, 1,1'-(3,3'-((4-Chloro-2-methoxy-3-(4-(trifluoromethyl)benzyl)quinolin-6-yl)(hydroxy)methylene)bis(azetidine-3,1-diyl))diethanone]: the Kd was determined as 46 nM.

As for `CCc1nc2ccc(C(O)(c3cnc(C)n3C)c3cnc(C)n3C)cc2c(Cl)c1Cc1ccc(C(F)(F)F)cc1` [Example 4, (4-Chloro-2-ethyl-3-(4-(trifluoromethyl)benzyl)quinolin-6-yl)bis(1,2-dimethyl-1H-imidazol-5-yl)methanole•TFA], the Kd came out at 0.006 nM.

For the compound `COc1nc2ccc(C(O)(c3cnc(C)n3C)c3cnc(C)n3C)cc2c(Cl)c1Cc1cccc(C(F)(F)F)c1` [Example 5, (4-Chloro-2-methoxy-3-(3-(trifluoromethyl)benzyl)quinolin-6-yl)bis(1,2-dimethyt-1H-imidazol-5-yt)methanol•TFA], the equilibrium dissociation constant (Kd) is 0.041 nM.

Consider `COc1nc2ccc(C(O)(c3cnc(C)n3C)c3cnc(C)n3C)cc2c(Cl)c1Cc1ccccc1C(F)(F)F` [Example 6, (4-Chloro-2-methoxy-3-(2-(trifluoromethyl)benzyl)quinolin-6-yl)bis(1,2-dimethyl-1H-imidazol-5-yl)methanol•TFA], for which the Kd came to 0.046 nM.

`COc1nc2ccc(C(O)(c3cnc(C)n3C)c3cnc(C)n3C)cc2c(Cl)c1Cc1ccc(C(F)(F)F)s1` [Example 7, (4-Chloro-2-methoxy-3-((5-(trifluoromethyl)thiophen-2-yl)methyl)quinolin-6-yl)bis(1,2-dimethyl-1H-imidazol-5-yl)methanol•TFA]: the dissociation constant (Kd) was 0.032 nM.

With `CCc1nc2ccc(C(O)(c3cnc(C)n3C)c3cnc(C)n3C)cc2c(C#N)c1Cc1ccc(C(F)(F)F)cc1` [Example 8, 6-(bis(1,2-Dimethyl-1H-imidazol-5-yl)(hydroxy)methyl)-2-ethyl-3-(4-(trifluoromethyl)benzyl)quinoline-4-carbonitrile.TFA], the Kd stood at 0.009 nM.

Consider `COc1nc2ccc(C(O)(c3cnc(C)n3C)c3cnc(C)n3C)cc2c(C#N)c1Cc1cccc(C(F)(F)F)c1` [Example 9, 6-(bis(1,2-Dimethyl-1H-imidazol-5-yl)(hydroxy)methyl)-2-methoxy-3-(3-(trifluoromethyl)benzyl)quinoline-4-carbonitrile•TFA], for which the Kd came to 0.055 nM.

As for `COc1nc2ccc(C(O)(c3cnc(C)n3C)c3cnc(C)n3C)cc2c(C#N)c1Cc1ccccc1C(F)(F)F` [Example 10, 6-(bis(1,2-Dimethyl-1H-imidazol-5-yl)(hydroxy)methyl)-2-methoxy-3-(2-(trifluoromethyl)benzyl)quinoline-4-carbonitrile•TFA], the Kd amounted to 0.17 nM.

For the compound `COc1nc2ccc(C(O)(c3cnc(C)n3C)c3cnc(C)n3C)cc2c(C#N)c1Cc1ccc(C(F)(F)F)cc1` [Example 11, 6-(bis(1,2-Dimethyl-1H-imidazol-5-yl)(hydroxy)methyl)-2-methoxy-3-(4-(trifluoromethyl)benzyl)quinoline-4-carbonitrile], the dissociation constant (Kd) stood at 0.013 nM.

As to `Cc1nc2ccc(C(O)(c3cnnn3C)c3cnc(C)n3C)cc2c(Cl)c1Cc1ccc(C(F)(F)F)cc1` (stereo not drawn) [Example 29a, (4-Chloro-2-methyl-3-(4-(trifluoromethyl)benzyl)quinolin-6-yl)(1,2-dimethyl-1H-imidazol-5-yl)(1-methyl-1H-1,2,3-triazol-5-yl)methanol], the dissociation constant Kd was 0.06 nM.

On to `Cc1nc2ccc(C(O)(c3ccnc(C(F)(F)F)c3)c3cncn3C)cc2c(Cl)c1Cc1ccc(C(F)(F)F)cc1` (stereo not drawn) [Example 30a, (4-Chloro-2-methyl-3-(4-(trifluoromethyl)benzyl)quinofin-6-yl)(1-methyl-1H-imidazol-5-yl)(2-(trifluoromethyl)pyridin4-yl)methanol], for which the Kd stood at 0.28 nM.

As for `Cc1nc2ccc(C(O)(c3cnnn3C)C3CN(C(=O)OC(C)(C)C)C3)cc2c(Cl)c1Cc1ccc(C(F)(F)F)cc1` (stereo not drawn) [Example 31, tert-Butyl 3-((4-chloro-2-methyl-3-(4-(trifluoromethyl)benzyl)quinolin-6-yl)(hydroxy)(1-methyl-1H-1,2,3-triazol-5-yl)methyl)azetidine-1-carboxylate], the equilibrium dissociation constant (Kd) amounted to 0.79 nM.

Take `CC(=O)N1CC(C(O)(c2ccc3nc(C)c(Cc4ccc(C(F)(F)F)cc4)c(Cl)c3c2)c2cnnn2C)C1` (stereo not drawn) [Example 32a, 1-(3-((4-Chloro-2-methyl-3-(4-(trifluoromethyl)benzyl)quinolin-6-yl)(hydroxy)(1-methyl-1H-1,2,3-triazol-5-yl)methyl)azetidin-1-yl)ethanone]: the Kd came out at 1.1 nM.

In the case of `CCc1nc2ccc(C(O)(c3cnnn3C)C3CCOCC3)cc2c(Cl)c1Cc1ccc(C(F)(F)F)cc1` (stereo not drawn) [Example 33a, (4-Chloro-2-ethyl-3-(4-(trifluoromethyl)benzyl)quinolin-6-yl)(1-methyl-1H-1,2,3-triazol-5-yl)(tetrahydro-2H-pyran-4-yl)methanol], the Kd stood at 0.05 nM.

In the case of `CCc1nc2ccc(C(O)(c3cnc(C)n3C)C3CCOCC3)cc2c(Cl)c1Cc1ccc(C(F)(F)F)cc1` (stereo not drawn) [Example 34a, (4-Chloro-2-ethyl-3-(4-(trifluoromethyl)benzyl)quinolin-6-yl)(1,2-dimethyl-1H-imidazol-5-yl)(tetrahydro-2H-pyran-4-yl)methanol], the Kd was determined as 0.03 nM.

Regarding `CCc1nc2ccc(C(O)(c3ccccc3)C3CCN(C(C)=O)CC3)cc2c(Cl)c1Cc1ccc(-n2cccn2)cc1` (stereo not drawn) [Example 35, 1-(4-((3-(4-(1H-Pyrazol-1-yl)benzyl)4-chloro-2-ethylquinolin-6-yl)(hydroxy)(phenyl)methyl)piperidin-1-yl)ethanone], the Kd was found to be 3 nM.

For the compound `COc1nc2ccc(C(O)(c3ccc(C)nc3C)c3cnc(C)n3C)cc2c(Cl)c1Cc1ccc(C(F)(F)F)nc1` (stereo not drawn) [Example 42a, (4-Chloro-2-methoxy-3-((6-(trifluoromethyl)pyridin-3-yl)methyl)quinolin-6-yl)(1,2-dimethyl-1H-imidazol-5-yl)(2,6-dimethylpyridin-3-yl)methanol], the dissociation constant (Kd) turned out to be 0.38 nM.

For `COc1nc2ccc(C(O)(c3cnc(C)n3C)c3cnc(C)n3C)cc2c(Cl)c1Cc1ccc(C(F)(F)F)nc1` [Example 45, (4-Chloro-2-methoxy-3-((6-(trifluoromethyl)pyridin-3-yl)methyl)quinolin-6-yl)bis(1,2-dimethyl-1H-imidazol-5-yl)methanol], the Kd was determined as 0.21 nM.

Consider `COc1nc2ccc(C(O)(c3cnc(C)n3C)c3cnc(C)n3C)cc2c(Cl)c1Cc1ccc(F)cc1` [Example 67, (4-Chloro-3-(4-fluorobenzyl)-2-methoxyquinolin-6-yl)bis(1,2-dimethyl-1H-imidazol-5-yl)methanol], for which the Kd was determined as 0.1 nM.
